The record followed here is ChEMBL document CHEMBL1201862, “PubChem BioAssay data set” (2004).

In assay [1] the target is Kappa-type opioid receptor (Homo sapiens, UniProt P41145). The format is functional.
Assay [2] deals with Delta-type opioid receptor (Homo sapiens, UniProt P41143). Nature of the assay: HTS Image-Based Screen for Agonists of the DOR Receptor. [Related pubchem assays (depositor defined):AID1777, AID1786, AID2133]. Type of assay: functional.
The target in assay [3] is Sphingosine 1-phosphate receptor 1 (Homo sapiens, UniProt P21453). Type of assay: functional.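 Further: Tango beta-arrestin reporter U2OS cells stimulated with S1P near its EC80; inhibitor potency meaning antagonism of receptor activation by the natural agonist.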
For assay [4], the target named is Photoreceptor-specific nuclear receptor (Homo sapiens, UniProt Q9Y5X4). The format is functional.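 Further: potency for compounds that break the NR2E3 corepressor complex and count as activators.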
The nature of assay [5]: ZM109 Env clade C HIV-1 fusion inhibitors, dose response, HeLa effector, CEM target cells, luciferase, cherry-pick (AID 652058). Type of assay: functional, cell-based.
For assay [6], the target named is Protein-tyrosine kinase 2-beta (Homo sapiens, UniProt Q14289).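 Further: potency of inhibitors of PYK2 kinase phosphorylation of poly-GT substrate.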
Assay [7] concerns the target T1, Mannose-6-phosphate isomerase (Homo sapiens, UniProt P34949).
T1 sequence (P34949 whole entry): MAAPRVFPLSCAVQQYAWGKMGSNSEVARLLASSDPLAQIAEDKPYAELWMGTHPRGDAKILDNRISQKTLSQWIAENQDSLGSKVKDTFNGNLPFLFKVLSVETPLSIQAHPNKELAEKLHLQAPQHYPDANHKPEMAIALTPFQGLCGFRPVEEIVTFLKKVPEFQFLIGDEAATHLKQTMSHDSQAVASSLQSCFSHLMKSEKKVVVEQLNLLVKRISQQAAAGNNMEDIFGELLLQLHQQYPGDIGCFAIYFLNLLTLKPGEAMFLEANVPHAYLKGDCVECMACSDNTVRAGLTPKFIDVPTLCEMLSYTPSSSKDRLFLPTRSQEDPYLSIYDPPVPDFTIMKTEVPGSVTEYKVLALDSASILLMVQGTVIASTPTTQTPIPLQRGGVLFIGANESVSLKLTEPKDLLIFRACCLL
Put plainly: human PMI inhibitors, high substrate, primary screen, biochemical, fluorescence intensity, high mannose 6-phosphate (AID 1220).

The target in assay [8] is T2, Streptokinase A (Streptococcus pyogenes serotype M1, UniProt P10520).
T2 sequence (P10520 whole entry): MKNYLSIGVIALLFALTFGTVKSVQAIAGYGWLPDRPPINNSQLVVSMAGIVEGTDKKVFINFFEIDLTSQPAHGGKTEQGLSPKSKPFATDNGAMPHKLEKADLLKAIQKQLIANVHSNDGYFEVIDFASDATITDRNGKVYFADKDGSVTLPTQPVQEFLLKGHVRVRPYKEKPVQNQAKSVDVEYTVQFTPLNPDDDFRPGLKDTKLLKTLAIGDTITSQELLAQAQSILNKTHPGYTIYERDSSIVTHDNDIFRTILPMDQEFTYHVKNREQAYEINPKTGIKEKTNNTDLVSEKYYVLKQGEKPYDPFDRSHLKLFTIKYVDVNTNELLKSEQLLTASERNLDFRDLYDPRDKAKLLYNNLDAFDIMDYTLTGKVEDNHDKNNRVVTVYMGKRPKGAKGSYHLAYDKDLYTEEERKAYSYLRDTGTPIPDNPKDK
Nature of the assay: S. pyogenes streptokinase expression inhibitors, potency, dose response, plasminogen activation absorbance, OD405 (AID 1914).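 Further: secreted streptokinase activity via plasminogen activation per viability signal from cell pellet.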 Type of assay: functional, Streptococcus pyogenes M1 GAS.

Assay [9] has as its target SUMO E1/E2 (Homo sapiens, UniProt P63279+Q9UBE0+Q9UBT2). Put plainly: SAR analysis of SUMOylation using HTRF in an in-Vitro dose response assay. [Related pubchem assays (depositor defined):AID2006, AID2011, AID2018, AID2069, AID2658]. Type of assay: functional.
Assay [10] concerns the target SUMO-activating enzyme (Homo sapiens, UniProt Q9UBT2). Nature of the assay: inhibitors of in vitro SUMOylation cascade, primary screen, biochemical, HTRF, uHTS (AID 2006). Type of assay: protein-complex assay.
Assay [11] addresses T3, Caspase-6 (Homo sapiens, UniProt P55212).
T3 sequence (P55212 whole entry): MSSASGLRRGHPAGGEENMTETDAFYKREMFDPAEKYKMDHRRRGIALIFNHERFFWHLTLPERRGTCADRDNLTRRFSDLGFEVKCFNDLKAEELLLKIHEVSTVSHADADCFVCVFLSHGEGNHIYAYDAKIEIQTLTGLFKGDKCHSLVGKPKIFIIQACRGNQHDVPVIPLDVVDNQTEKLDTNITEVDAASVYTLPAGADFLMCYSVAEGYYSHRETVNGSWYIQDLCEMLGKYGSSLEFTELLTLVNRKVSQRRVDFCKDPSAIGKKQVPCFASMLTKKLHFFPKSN
Nature of the assay: human caspase-6 inhibitors, dose response, biochemical, VEID-R110 fluorescence, cherry-pick (AID 720632).

Assay [12] concerns the target T4, Zinc finger protein mex-5 (Caenorhabditis elegans, UniProt Q9XUB2).
T4 sequence (Q9XUB2 whole entry): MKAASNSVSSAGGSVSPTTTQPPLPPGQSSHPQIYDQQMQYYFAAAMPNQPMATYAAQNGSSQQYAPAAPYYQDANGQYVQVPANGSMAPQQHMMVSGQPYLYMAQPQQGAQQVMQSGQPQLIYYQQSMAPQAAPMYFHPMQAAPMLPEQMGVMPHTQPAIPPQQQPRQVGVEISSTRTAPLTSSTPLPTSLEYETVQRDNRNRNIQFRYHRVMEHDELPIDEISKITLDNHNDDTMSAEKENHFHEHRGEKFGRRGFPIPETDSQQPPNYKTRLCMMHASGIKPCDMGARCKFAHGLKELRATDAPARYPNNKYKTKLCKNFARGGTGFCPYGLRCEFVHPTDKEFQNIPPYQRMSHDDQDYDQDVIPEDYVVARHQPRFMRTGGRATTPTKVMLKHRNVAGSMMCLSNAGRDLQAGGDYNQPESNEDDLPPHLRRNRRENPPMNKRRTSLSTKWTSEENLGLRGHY
Nature of the assay: MEX-5/TCR-2 RNA interaction inhibitors, dose response, biochemical, C. elegans, fluorescence polarization (AID 1960).

Assay [13] addresses T5, Sentrin-specific protease 8 (Homo sapiens, UniProt Q96LD8).
T5 sequence (Q96LD8 whole entry): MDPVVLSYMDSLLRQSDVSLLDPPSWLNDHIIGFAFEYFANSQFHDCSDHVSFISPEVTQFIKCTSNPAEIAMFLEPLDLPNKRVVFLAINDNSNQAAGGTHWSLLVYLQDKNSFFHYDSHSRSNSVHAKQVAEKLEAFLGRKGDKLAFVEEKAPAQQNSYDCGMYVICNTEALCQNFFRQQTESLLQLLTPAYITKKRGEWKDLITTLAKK
The format is functional.

Assay [14] in a line: inhibitors of firefly luciferase expression or activity, dose response, H4 neuroglioma cells, luminescence (AID 1990). The format is functional, cell-based.
Assay [15] deals with A-375. Nature of the assay: MITF: Counter assay: A375 proliferation Measured in Cell-Based System Using Plate Reader - 2084-03_Inhibitor_Dose_DryPowder_Activity. [Related pubchem assays (depositor defined):AID488944]. Type of assay: functional. To be noted: Homo sapiens.
Assay [16] can be described thus: enhancers of respiration in Yfh1-depleted yeast, dose response, Friedreich's ataxia, plus single-dose screen (AID 1465).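 Further: yeast depleted of Yfh1p frataxin homolog grown on glycerol needing respiration; WST-1 tetrazolium dye reduction as measure of cellular dehydrogenase metabolic activity.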 Type of assay: functional.
Assay [17] is described as follows: cytotoxicity in MIN6 insulinoma cells, dose response, cytotoxicity control, cell-based, mouse insulinoma (AID 2122).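 Further: confirmatory high-throughput counterscreen run to flag cytotoxic compounds; mouse MIN-6 beta cells carrying an insulin promoter eGFP reporter.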 Type of assay: functional.

Structures are written as SMILES. Active and inactive are the calls of the source.

Chain of SUMO E1/E2 (Q9UBE0 whole entry): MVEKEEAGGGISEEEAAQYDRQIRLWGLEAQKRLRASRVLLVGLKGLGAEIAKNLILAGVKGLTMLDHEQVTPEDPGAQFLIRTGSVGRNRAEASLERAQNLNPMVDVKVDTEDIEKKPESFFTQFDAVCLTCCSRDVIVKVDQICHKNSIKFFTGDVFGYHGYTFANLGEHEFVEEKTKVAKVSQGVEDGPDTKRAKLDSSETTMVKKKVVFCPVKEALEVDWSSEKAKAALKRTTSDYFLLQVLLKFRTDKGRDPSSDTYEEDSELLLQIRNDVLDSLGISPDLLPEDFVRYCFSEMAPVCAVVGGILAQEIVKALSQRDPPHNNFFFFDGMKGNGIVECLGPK
Chain of SUMO E1/E2 (Q9UBT2 whole entry): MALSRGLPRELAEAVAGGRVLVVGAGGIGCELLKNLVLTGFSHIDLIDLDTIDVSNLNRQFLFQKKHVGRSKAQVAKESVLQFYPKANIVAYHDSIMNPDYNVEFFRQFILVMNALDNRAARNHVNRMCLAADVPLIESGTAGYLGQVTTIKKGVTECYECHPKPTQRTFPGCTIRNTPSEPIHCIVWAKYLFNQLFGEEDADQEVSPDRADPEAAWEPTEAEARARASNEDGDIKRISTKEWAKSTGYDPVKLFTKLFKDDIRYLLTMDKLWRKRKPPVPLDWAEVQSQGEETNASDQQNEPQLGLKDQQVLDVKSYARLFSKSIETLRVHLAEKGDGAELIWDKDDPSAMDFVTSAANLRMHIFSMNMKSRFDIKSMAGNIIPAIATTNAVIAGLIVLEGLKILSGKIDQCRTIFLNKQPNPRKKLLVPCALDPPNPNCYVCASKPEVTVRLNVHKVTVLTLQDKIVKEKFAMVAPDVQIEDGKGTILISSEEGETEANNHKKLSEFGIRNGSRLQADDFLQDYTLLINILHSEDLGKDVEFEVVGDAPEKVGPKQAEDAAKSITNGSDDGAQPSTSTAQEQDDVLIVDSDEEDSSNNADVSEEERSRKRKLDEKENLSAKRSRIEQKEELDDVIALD
Chain of SUMO E1/E2 (P63279 whole entry): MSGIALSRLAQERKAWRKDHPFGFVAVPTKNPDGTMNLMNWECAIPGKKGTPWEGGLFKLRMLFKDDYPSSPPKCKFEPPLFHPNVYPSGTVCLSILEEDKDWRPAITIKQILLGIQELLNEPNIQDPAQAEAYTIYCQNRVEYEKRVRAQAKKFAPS
Chain of SUMO-activating enzyme (Q9UBE0 whole entry): as the sequence (Q9UBE0 whole entry) above
Chain of SUMO-activating enzyme (Q9UBT2 whole entry): as the sequence (Q9UBT2 whole entry) above
Chain of Protein-tyrosine kinase 2-beta (Q14289 whole entry): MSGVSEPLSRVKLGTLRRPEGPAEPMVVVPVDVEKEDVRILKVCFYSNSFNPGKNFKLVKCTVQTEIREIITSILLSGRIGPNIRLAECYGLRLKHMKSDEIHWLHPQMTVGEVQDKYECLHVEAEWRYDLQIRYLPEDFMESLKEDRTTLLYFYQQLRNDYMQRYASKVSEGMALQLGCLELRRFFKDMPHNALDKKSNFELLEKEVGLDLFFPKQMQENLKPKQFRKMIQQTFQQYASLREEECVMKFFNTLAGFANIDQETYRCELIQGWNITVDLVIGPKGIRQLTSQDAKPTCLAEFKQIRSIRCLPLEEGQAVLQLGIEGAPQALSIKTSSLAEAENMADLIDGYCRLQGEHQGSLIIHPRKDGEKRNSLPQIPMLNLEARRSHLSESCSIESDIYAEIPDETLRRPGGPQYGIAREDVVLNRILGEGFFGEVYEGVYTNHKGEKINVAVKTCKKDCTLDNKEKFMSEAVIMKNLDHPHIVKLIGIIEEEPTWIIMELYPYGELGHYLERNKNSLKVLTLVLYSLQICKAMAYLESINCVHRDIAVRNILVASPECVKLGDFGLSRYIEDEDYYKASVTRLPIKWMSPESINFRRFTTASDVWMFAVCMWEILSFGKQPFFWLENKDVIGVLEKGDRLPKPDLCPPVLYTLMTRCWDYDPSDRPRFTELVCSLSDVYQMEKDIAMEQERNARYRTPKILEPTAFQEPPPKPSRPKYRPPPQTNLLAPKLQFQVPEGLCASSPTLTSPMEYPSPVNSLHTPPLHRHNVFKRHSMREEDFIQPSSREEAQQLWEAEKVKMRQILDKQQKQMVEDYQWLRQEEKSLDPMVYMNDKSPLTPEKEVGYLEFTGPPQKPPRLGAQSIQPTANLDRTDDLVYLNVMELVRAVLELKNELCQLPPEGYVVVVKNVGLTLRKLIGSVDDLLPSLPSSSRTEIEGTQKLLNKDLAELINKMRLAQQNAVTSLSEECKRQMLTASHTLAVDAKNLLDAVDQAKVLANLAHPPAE
Chain of Delta-type opioid receptor (P41143 whole entry): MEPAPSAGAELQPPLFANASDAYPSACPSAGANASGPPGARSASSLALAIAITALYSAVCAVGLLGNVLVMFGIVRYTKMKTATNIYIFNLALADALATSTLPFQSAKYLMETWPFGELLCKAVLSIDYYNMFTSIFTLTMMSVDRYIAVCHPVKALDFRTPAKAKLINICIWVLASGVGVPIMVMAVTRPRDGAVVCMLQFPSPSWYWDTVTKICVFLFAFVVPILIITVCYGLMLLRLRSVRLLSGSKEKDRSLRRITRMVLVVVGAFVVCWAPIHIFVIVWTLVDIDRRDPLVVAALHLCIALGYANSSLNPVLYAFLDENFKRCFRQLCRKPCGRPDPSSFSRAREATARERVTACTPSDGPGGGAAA
Chain of Kappa-type opioid receptor (P41145 whole entry): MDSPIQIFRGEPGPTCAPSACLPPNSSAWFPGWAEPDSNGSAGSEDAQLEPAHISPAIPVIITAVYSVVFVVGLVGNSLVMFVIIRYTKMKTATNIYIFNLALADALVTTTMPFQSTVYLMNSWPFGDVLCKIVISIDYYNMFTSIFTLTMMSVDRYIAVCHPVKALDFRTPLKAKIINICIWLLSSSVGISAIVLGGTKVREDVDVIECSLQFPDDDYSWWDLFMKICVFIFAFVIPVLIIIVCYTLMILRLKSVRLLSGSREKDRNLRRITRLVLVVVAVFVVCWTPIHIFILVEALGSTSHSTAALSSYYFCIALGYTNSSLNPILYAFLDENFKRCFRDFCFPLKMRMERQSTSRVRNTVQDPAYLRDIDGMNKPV
Chain of Sphingosine 1-phosphate receptor 1 (P21453 whole entry): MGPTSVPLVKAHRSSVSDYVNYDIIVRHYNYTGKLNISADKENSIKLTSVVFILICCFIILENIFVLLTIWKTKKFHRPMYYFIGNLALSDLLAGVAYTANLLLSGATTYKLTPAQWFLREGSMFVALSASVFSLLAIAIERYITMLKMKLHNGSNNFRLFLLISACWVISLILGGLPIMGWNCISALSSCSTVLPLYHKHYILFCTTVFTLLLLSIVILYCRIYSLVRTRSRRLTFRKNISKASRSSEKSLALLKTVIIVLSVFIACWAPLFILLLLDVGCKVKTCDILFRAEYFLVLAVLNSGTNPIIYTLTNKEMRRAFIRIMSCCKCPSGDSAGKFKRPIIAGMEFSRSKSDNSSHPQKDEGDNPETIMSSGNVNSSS
Chain of Photoreceptor-specific nuclear receptor (Q9Y5X4 whole entry, the tested form may be a part): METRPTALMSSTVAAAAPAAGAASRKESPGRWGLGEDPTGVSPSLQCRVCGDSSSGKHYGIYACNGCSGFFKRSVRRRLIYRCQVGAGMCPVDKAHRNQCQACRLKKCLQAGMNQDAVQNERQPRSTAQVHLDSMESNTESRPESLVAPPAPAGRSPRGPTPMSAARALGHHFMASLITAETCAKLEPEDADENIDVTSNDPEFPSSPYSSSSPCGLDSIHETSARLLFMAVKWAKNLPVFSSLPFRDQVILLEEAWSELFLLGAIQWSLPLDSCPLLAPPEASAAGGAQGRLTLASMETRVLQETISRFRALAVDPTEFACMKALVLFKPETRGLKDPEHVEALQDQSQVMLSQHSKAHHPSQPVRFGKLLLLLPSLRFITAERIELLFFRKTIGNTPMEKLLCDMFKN

`CCC(=O)OCCNc1cc(Sc2nccn2C)c2nonc2c1[N+](=O)[O-]` gave an IC50 in assay [1] of 22.7 µM. The EC50 in assay [2] was > 32 µM (inactive).

As for `O=C1C(=O)c2ccccc2-c2ccccc21` [9,10-PHENANTHRENEQUINONE], the IC50 in assay [3] is 5.02 µM (active); in assay [4] it was > 39.8 µM (not active); in [6], > 69.5 µM (not active). The AC50 in [5] is 3.1 µM (active).

As to `CCOC(=O)C1=C(c2ccc(OC)cc2)C(=O)c2ccccc2C1=O`, in [7], the IC50 is on record as > 50 µM (not active). In [8], the EC50 is reported as > 150 µM (not active).

For the compound `CCCCn1c(NC(=O)c2ccccc2Cl)c(C#N)c2nc3ccccc3nc21`, the IC50 is 10.9 µM (active) in [9] and 2.82 µM (active) in assay [10]. Further, in assay [11], the AC50 was 14.1 µM (active).

With `O=C1c2cc(F)ccc2-n2c1nc1ccccc1c2=O`, the values for the EC50 in assay [12] and in [14] were > 300 µM (not active) and 10 µM (inconclusive), respectively. For the same compound, the IC50 in assay [13] is 962 nM (active).

Regarding `O=C1C=C(N(CCO)Cc2ccccc2)c2ccccc2C1=O`, in assay [15], the AC50 is 37.8 µM (active). Moreover, the EC50 in assay [16] is > 100 µM (active). For the same compound, the 50% inhibitory concentration (IC50) in assay [17] is 3.71 µM (active).

What is called IC50 is the point on the concentration scale where inhibition reaches its midpoint. For orientation: EC50 means the concentration that produces a half-maximal response. In general, AC50 refers to the concentration at which the activity in the assay is half-maximal.
